Assays:
Mu-type opioid receptor = Mu-type opioid receptor (Rattus norvegicus, UniProt P33535); experiment: Binding affinity against opioid receptor mu using [3H]-DAMGO as radioligand.
[1] = Binding affinity against PCP receptor using [3H]TCP as radioligand.
[2] = Ratio of binding affinities of pcp receptor(ki(nM)) to sigma opioid receptor(ki(nM))
[3] = Binding affinity against sigma opioid receptor using [3H]pentazocine as radioligand.
[4] = Binding affinity against sigma opioid receptor using [3H](+)-3-PPP as radioligand.

Mu-type opioid receptor, sequence (P33535 whole entry): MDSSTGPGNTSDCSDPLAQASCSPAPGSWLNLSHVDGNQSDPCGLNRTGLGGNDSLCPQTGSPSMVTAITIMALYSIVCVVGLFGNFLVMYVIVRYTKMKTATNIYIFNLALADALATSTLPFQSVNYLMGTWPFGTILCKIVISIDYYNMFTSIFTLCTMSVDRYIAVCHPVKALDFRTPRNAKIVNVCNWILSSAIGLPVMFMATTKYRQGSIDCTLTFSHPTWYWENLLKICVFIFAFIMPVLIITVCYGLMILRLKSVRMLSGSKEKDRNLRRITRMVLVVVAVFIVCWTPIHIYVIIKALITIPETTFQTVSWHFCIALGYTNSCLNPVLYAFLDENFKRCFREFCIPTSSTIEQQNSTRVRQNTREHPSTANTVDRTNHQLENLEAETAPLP

Question: With `C/C=C/CN1CC[C@]2(C)c3cc(O)ccc3C[C@@H]1[C@@H]2C` as the compound, how does the Ki (Mu-type opioid receptor) read?
Answer: Its Ki is 0.009 µM.

Question: What about the Ki [1] of the same compound?
Answer: Its Ki is 0.347 µM.

Question: With `C/C=C\CN1CC[C@@]2(C)c3cc(O)ccc3C[C@H]1[C@H]2C` as the compound, how does the Ki (Mu-type opioid receptor) read?
Answer: The Ki was 1.69 µM.

Question: And the Ki [1]?
Answer: Its Ki is 0.381 µM.

Question: Which results are given for `C=C[C@H](C)N1CC[C@]2(C)c3cc(O)ccc3C[C@@H]1[C@@H]2C`?
Answer: Ki (Mu-type opioid receptor): 0.003 µM; Ki [1]: 2.2 µM

Question: For `C[C@H]1[C@H]2Cc3ccc(O)cc3[C@@]1(C)CCN2CCCCCc1ccccc1`, which Ki (Mu-type opioid receptor) is on record?
Answer: Its Ki is 0.068 µM.

Question: What about the Ki [1] of the same compound?
Answer: Its Ki is greater than 10 µM.

Question: And the Ratio [2]?
Answer: The Ratio was 260.

Question: And the Ki [3]?
Answer: The Ki was 0.0385 µM.

Question: Which Ki (Mu-type opioid receptor) does the source give for `C[C@H]1[C@H]2Cc3ccc(O)cc3[C@]1(C)CCN2CCc1ccccc1` here?
Answer: Its Ki is 0.0002 µM.

Question: What about the Ki [1] of the same compound?
Answer: The Ki was 1.88 µM.

Question: What about the Ratio [2] of the same compound?
Answer: Its Ratio is 30.5.

Question: And the Ki [3]?
Answer: Its Ki is 0.0617 µM.

Question: Which Ki (Mu-type opioid receptor) does the source give for `C[C@@H]1[C@@H]2Cc3ccc(O)cc3[C@]1(C)CCN2` here?
Answer: Its Ki is 0.47 µM.

Question: And the Ki [1]?
Answer: The Ki was 0.03 µM.

Question: What does the source list for `C=CCN1CC[C@]2(C)c3cc(O)ccc3C[C@@H]1[C@@H]2C`?
Answer: Ki (Mu-type opioid receptor): 0.0036 µM; Ki [1]: 0.504 µM; Ki [3]: > 3 µM

Question: What does the source list for `C=C[C@H](C)N1CC[C@@]2(C)c3cc(O)ccc3C[C@H]1[C@H]2C`?
Answer: Ki [4]: 0.159 µM; Ki (Mu-type opioid receptor): 2.27 µM; Ki [1]: 0.09 µM

Question: What does the source list for `C[C@@H]1[C@@H]2Cc3ccc(O)cc3[C@]1(C)CCN2C/C=C/Cl`?
Answer: Ki (Mu-type opioid receptor): 1.98 µM; Ki [1]: 0.25 µM; Ratio [2]: 24; Ki [3]: 0.0105 µM

Question: Which Ki (Mu-type opioid receptor) does the source give for `CC(C)=CCN1CC[C@@]2(C)c3cc(O)ccc3C[C@@H]1[C@@H]2C` here?
Answer: The Ki was 0.013 µM.

Question: And the Ki [1]?
Answer: Its Ki is 0.842 µM.

Question: What about the Ratio [2] of the same compound?
Answer: The Ratio was 10.1.

Question: Which Ki (Mu-type opioid receptor) does the source give for `C[C@@H]1[C@@H]2Cc3ccc(O)cc3[C@@]1(C)CN2CC1CC1` here?
Answer: Its Ki is 1.24 µM.

Question: And the Ki [1]?
Answer: The Ki was 0.153 µM.

Question: What about the Ratio [2] of the same compound?
Answer: Its Ratio is 8.9.

Question: What about the Ki [3] of the same compound?
Answer: The Ki was 0.0172 µM.

Question: Which results are given for `CC#CCN1CC[C@]2(C)c3cc(O)ccc3C[C@@H]1[C@@H]2C`?
Answer: Ki (Mu-type opioid receptor): 0.0051 µM; Ki [1]: 0.36 µM

Question: For `CC(C)=CCN1CC[C@]2(C)c3cc(O)ccc3C[C@H]1[C@H]2C` [(+)-PENTAZOCINE], which Ki [1] is on record?
Answer: The Ki was 4.04 µM.

Question: And the Ratio [2]?
Answer: Its Ratio is 1300.

Question: Which Ki (Mu-type opioid receptor) does the source give for `C[C@@H]1[C@@H]2Cc3ccc(O)cc3[C@]1(C)CCN2C` here?
Answer: Its Ki is 4.97 µM.

Question: What about the Ki [1] of the same compound?
Answer: Its Ki is 0.041 µM.

Question: With `C[C@H]1[C@H]2Cc3ccc(O)cc3[C@@]1(C)CCN2` as the compound, how does the Ki (Mu-type opioid receptor) read?
Answer: Its Ki is 0.023 µM.

Question: And the Ki [1]?
Answer: Its Ki is 0.197 µM.

Question: What about the Ki [3] of the same compound?
Answer: The Ki was 5.58 µM.

Question: For `C[C@@H]1[C@@H]2Cc3ccc(O)cc3[C@]1(C)CCN2CCCCc1ccccc1`, which Ki (Mu-type opioid receptor) is on record?
Answer: The Ki was 0.27 µM.

Question: And the Ki [1]?
Answer: The Ki was greater than 10 µM.

Question: And the Ratio [2]?
Answer: Its Ratio is 3100.

Question: What about the Ki [3] of the same compound?
Answer: Its Ki is 0.00323 µM.

Question: What does the source list for `C=C[C@@H](C)N1CC[C@@]2(C)c3cc(O)ccc3C[C@H]1[C@H]2C`?
Answer: Ki (Mu-type opioid receptor): 0.69 µM; Ki [1]: 0.2 µM

Question: What does the source list for `C[C@H]1[C@H]2Cc3ccc(O)cc3[C@@]1(C)CCN2Cc1ccccc1`?
Answer: Ki (Mu-type opioid receptor): 0.097 µM; Ki [1]: 6.5 µM; Ki [3]: 0.0365 µM

Question: Which Ki (Mu-type opioid receptor) does the source give for `C[C@@H]1[C@@H]2Cc3ccc(O)cc3[C@]1(C)CCN2CCCCCc1ccccc1` here?
Answer: The Ki was 0.26 µM.

Question: What about the Ki [1] of the same compound?
Answer: The Ki was greater than 10 µM.

Question: And the Ratio [2]?
Answer: The Ratio was greater than 3790.

Question: What about the Ki [3] of the same compound?
Answer: The Ki was 0.00264 µM.

Question: Which Ki (Mu-type opioid receptor) does the source give for `C[C@@H]1[C@@H]2Cc3ccc(O)cc3[C@@]1(C)CCN2CCc1ccccc1` here?
Answer: Its Ki is 0.055 µM.

Question: What about the Ki [1] of the same compound?
Answer: The Ki was greater than 10 µM.

Question: What about the Ratio [2] of the same compound?
Answer: Its Ratio is greater than 2560.

Question: What about the Ki [3] of the same compound?
Answer: The Ki was 0.0039 µM.

Question: For `CC#CCN1CC[C@@]2(C)c3cc(O)ccc3C[C@H]1[C@H]2C`, which Ki [4] is on record?
Answer: Its Ki is 0.0937 µM.

Question: What about the Ki (Mu-type opioid receptor) of the same compound?
Answer: The Ki was 1 µM.

Question: And the Ki [1]?
Answer: Its Ki is 1.23 µM.

Question: For `C[C@H]1[C@H]2Cc3ccc(O)cc3[C@]1(C)CCN2CC1CC1` [CYCLAZOCINE], which Ki (Mu-type opioid receptor) is on record?
Answer: Its Ki is 0.00018 µM.

Question: And the Ki [1]?
Answer: Its Ki is 0.107 µM.

Question: For `C=CCN1CC[C@@]2(C)c3cc(O)ccc3C[C@H]1[C@H]2C`, which Ki (Mu-type opioid receptor) is on record?
Answer: The Ki was greater than 10 µM.

Question: What about the Ki [1] of the same compound?
Answer: Its Ki is 0.225 µM.

Question: With `C=C[C@@H](C)N1CC[C@]2(C)c3cc(O)ccc3C[C@@H]1[C@@H]2C` as the compound, how does the Ki (Mu-type opioid receptor) read?
Answer: Its Ki is 0.0059 µM.

Question: What about the Ki [1] of the same compound?
Answer: The Ki was 1.9 µM.

Question: Which results are given for `CC(C)CCN1CC[C@]2(C)c3cc(O)ccc3C[C@@H]1[C@@H]2C`?
Answer: Ki (Mu-type opioid receptor): 0.0049 µM; Ki [1]: 2.74 µM; Ratio [2]: 313; Ki [3]: 0.00874 µM

Question: What does the source list for `C[C@H]1[C@H]2Cc3ccc(O)cc3[C@@]1(C)CCN2C/C=C/Cl`?
Answer: Ki (Mu-type opioid receptor): 0.0015 µM; Ki [1]: 0.47 µM; Ratio [2]: 1.2; Ki [3]: 0.403 µM

Question: What does the source list for `C[C@H]1[C@H]2Cc3ccc(O)cc3[C@@]1(C)CCN2CCCc1ccccc1`?
Answer: Ki (Mu-type opioid receptor): 0.02 µM; Ki [1]: 3.6 µM; Ratio [2]: 93.3; Ki [3]: 0.0386 µM

Question: For `C/C=C\CN1CC[C@]2(C)c3cc(O)ccc3C[C@@H]1[C@@H]2C`, which Ki [4] is on record?
Answer: Its Ki is 0.46 µM.

Question: What about the Ki (Mu-type opioid receptor) of the same compound?
Answer: Its Ki is 0.011 µM.

Question: And the Ki [1]?
Answer: The Ki was 1.12 µM.

Question: Which Ki (Mu-type opioid receptor) does the source give for `C[C@@H]1[C@@H]2Cc3ccc(O)cc3[C@]1(C)CCN2CCCc1ccccc1` here?
Answer: The Ki was 0.343 µM.

Question: And the Ki [1]?
Answer: Its Ki is 9.7 µM.

Question: What about the Ratio [2] of the same compound?
Answer: Its Ratio is 8440.

Question: And the Ki [3]?
Answer: The Ki was 0.00115 µM.

Question: With `C/C=C/CN1CC[C@@]2(C)c3cc(O)ccc3C[C@H]1[C@H]2C` as the compound, how does the Ki [4] read?
Answer: The Ki was 0.0525 µM.

Question: What about the Ki (Mu-type opioid receptor) of the same compound?
Answer: Its Ki is 5.62 µM.

Question: What about the Ki [1] of the same compound?
Answer: The Ki was 0.179 µM.

Question: What does the source list for `CC(C)CCN1CC[C@@]2(C)c3cc(O)ccc3C[C@H]1[C@H]2C`?
Answer: Ki (Mu-type opioid receptor): 3.5 µM; Ki [1]: > 10 µM; Ratio [2]: > 4440; Ki [3]: 0.00225 µM

Question: Which Ki (Mu-type opioid receptor) does the source give for `C[C@H]1[C@H]2Cc3ccc(O)cc3[C@@]1(C)CCN2CCCCc1ccccc1` here?
Answer: The Ki was 0.004 µM.

Question: And the Ki [1]?
Answer: The Ki was 5.96 µM.

Question: What about the Ratio [2] of the same compound?
Answer: The Ratio was 70.

Question: And the Ki [3]?
Answer: The Ki was 0.0852 µM.

Question: With `C[C@@H]1[C@@H]2Cc3ccc(O)cc3[C@]1(C)CCN2Cc1ccccc1` as the compound, how does the Ki (Mu-type opioid receptor) read?
Answer: Its Ki is 1.61 µM.

Question: What about the Ki [1] of the same compound?
Answer: Its Ki is greater than 10 µM.

Question: And the Ki [3]?
Answer: The Ki was 0.00067 µM.

Question: With `C[C@H]1[C@H]2Cc3ccc(O)cc3[C@@]1(C)CCN2C` as the compound, how does the Ki (Mu-type opioid receptor) read?
Answer: Its Ki is 0.011 µM.

Question: And the Ki [1]?
Answer: The Ki was 1.19 µM.
